Test results published in patent US20230407243A1, “GENETIC PLATFORM TO INVESTIGATE THE FUNCTIONS OF BACTERIAL DRUG EFFLUX PUMPS” (priority 2022, published 2023).

Legend:
Assay type in all cases: cell-based, Escherichia coli
EKO-35-Pore = assay: MIC susceptibility profiling, porinated strain; conditions: for Fold changes of MICs: EKO-35-Pore compared to EKO-35-Pore (reference); for Minimum inhibitory concentration (MIC), Pore EKO-35: Table 10, with pore; for Minimum inhibitory concentration (MIC), Pore EKO-35 / Minimum inhibitory concentration, EKO-35-Pore: technical duplicate; for Minimum inhibitory concentration, EKO-35-Pore: Table 14A, porinated
In short: (§1)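 MIC values come from background-corrected OD600 readings (pre-incubation OD subtracted) after 18 h at 37 °C and 900 rpm in MHB II. Compounds were tested in duplicate as 2-fold dilutions. The inoculum came from 18 h LB cultures adjusted to OD600 ~1.0 and diluted 1/2000, and the pore-bearing strains were vancomycin-checked beforehand.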

EKO-35 araC::macAB Pore = assay: MIC susceptibility profiling, porinated efflux platform; conditions: for Fold changes of MICs: EKO-35 araC::macAB Pore compared to EKO-35-Pore; for Minimum inhibitory concentration: EKO-35 araC::macAB Pore, technical duplicate
In short: as §1

EKO-35 araC::emrAB Pore = assay: as above; conditions: for Fold changes of MICs: EKO-35 araC::emrAB Pore compared to EKO-35-Pore; for Minimum inhibitory concentration: EKO-35 araC::emrAB Pore, technical duplicate
In short: as §1

EKO-35 araC::mdtBC Pore = assay: as above; conditions: for Fold changes of MICs: EKO-35 araC::mdtBC Pore compared to EKO-35-Pore; for Minimum inhibitory concentration: EKO-35 araC::mdtBC Pore, technical duplicate
In short: as §1

EKO-35 araC::emrKY Pore = assay: as above; conditions: for Fold changes of MICs: EKO-35 araC::emrKY Pore compared to EKO-35-Pore; for Minimum inhibitory concentration: EKO-35 araC::emrKY Pore, technical duplicate
In short: as §1

[1] = system: EKO-35 araC::acrBD408A Pore; assay: as above; conditions: for Fold changes of MICs: EKO-35 araC::acrBD408A Pore compared to EKO-35-Pore; for Minimum inhibitory concentration: EKO-35 araC::acrBD408A Pore, technical duplicate
In short: as §1

EKO-35 araC::acrB Pore = assay: as above; conditions: for Fold changes of MICs: EKO-35 araC::acr-B Pore compared to EKO-35-Pore; for Minimum inhibitory concentration, EKO-35 araC::acrB Pore: Table 14A, porinated, technical duplicate
In short: as §1

EKO-35 araC::mdtEF Pore = assay: as above; conditions: for Fold changes of MICs: EKO-35 araC::mdtEF Pore compared to EKO-35-Pore; for Minimum inhibitory concentration, EKO-35 araC::mdtEF Pore: Table 14A, porinated, technical duplicate
In short: as §1

EKO-35 araC::acrEF Pore = assay: as above; conditions: for Fold changes of MICs: EKO-35 araC::acrEF Pore compared to EKO-35-Pore; for Minimum inhibitory concentration, EKO-35 araC::acrEF Pore: Table 14A, porinated, technical duplicate
In short: as §1

EKO-35 araC::mexCD Pore = assay: as above; conditions: for Fold changes of MICs: EKO-35 araC::mexCD Pore compared to EKO-35-Pore; for Minimum inhibitory concentration: EKO-35 araC::mexCD Pore, technical duplicate
In short: as §1

EKO-35 araC::acrD Pore = assay: as above; conditions: for Fold changes of MICs: EKO-35 araC::acrD Pore compared to EKO-35-Pore; for Minimum inhibitory concentration, EKO-35 araC::acrD Pore: Table 14A, porinated, technical duplicate
In short: as §1

EKO-35 araC::mdtBC = assay: MIC susceptibility profiling, efflux platform; conditions: for Fold change of MICs: EKO-35 araC::mdtBC compared to EKO-35; for Minimum Inhibitory Concentration, EKO-35 araC::mdtBC: Table 13B, non-porinated, technical duplicate
In short: (§2)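 Turbidity (OD600, pre-incubation subtracted) defined growth after 18 h at 37 °C in MHB II. The inoculum was diluted 1/2000 from an OD600 ~1.0 PBS suspension of an overnight LB culture. Compounds were run as duplicate twofold dilutions.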

EKO-35 araC::mdtEF = assay: MIC susceptibility profiling, efflux platform; conditions: for Fold change of MICs: EKO-35 araC::mdtEF compared to EKO-35; for Minimum Inhibitory Concentration, EKO-35 araC::mdtEF: Table 13A, non-porinated, technical duplicate
In short: as §2

ΔtolC-Pore = assay: microbe, parasite or virus in culture; conditions: technical duplicate; for Minimum inhibitory concentration (MIC), Pore ΔtolC: Table 10, with pore; for Minimum inhibitory concentration, ΔtolC-Pore: Table 14A, porinated
In short: as §1

wild-type (WT) K-12-Pore = assay: microbe, parasite or virus in culture; conditions: technical duplicate; for Minimum inhibitory concentration (MIC), Pore K-12: Table 10, with pore; for Minimum inhibitory concentration, K-12 (WT)-Pore: Table 14A, porinated
In short: as §1

E. coli ΔtolC = assay: microbe, parasite or virus in culture; conditions: technical duplicate; for Minimum inhibitory concentration (MIC), ΔtolC: Table 10, without pore; for Minimum Inhibitory Concentration, ΔtolC: Table 13A, non-porinated
In short: as §2

[2] = system: wild-type E. coli K-12 str. BW25113; assay: microbe, parasite or virus in culture; conditions: technical duplicate; for Minimum inhibitory concentration (MIC), K-12: Table 10, without pore; for Minimum Inhibitory Concentration, K-12: Table 13A, non-porinated
In short: as §2

E. coli EKO-35 = assay: microbe, parasite or virus in culture; conditions: for Fold change of MICs: EKO-35 compared to EKO-35 (reference); for Minimum inhibitory concentration (MIC), EKO-35: Table 10, without pore; for Minimum inhibitory concentration (MIC), EKO-35 / Minimum Inhibitory Concentration, EKO-35: technical duplicate; for Minimum Inhibitory Concentration, EKO-35: Table 13A, non-porinated
In short: as §2

SMILES | Fold changes of MICs (EKO-35-Pore) | Minimum inhibitory concentration (MIC), Pore EKO-35 (EKO-35-Pore) | Minimum inhibitory concentration, EKO-35-Pore (EKO-35-Pore) | Fold changes of MICs (EKO-35 araC::macAB Pore) | Minimum inhibitory concentration (EKO-35 araC::macAB Pore) | Fold changes of MICs (EKO-35 araC::emrAB Pore) | Minimum inhibitory concentration (EKO-35 araC::emrAB Pore) | Fold changes of MICs (EKO-35 araC::mdtBC Pore) | Minimum inhibitory concentration (EKO-35 araC::mdtBC Pore) | Fold changes of MICs (EKO-35 araC::emrKY Pore) | Minimum inhibitory concentration (EKO-35 araC::emrKY Pore) | Fold changes of MICs [1] | Minimum inhibitory concentration [1] | Fold changes of MICs (EKO-35 araC::acrB Pore) | Minimum inhibitory concentration, EKO-35 araC::acrB Pore (EKO-35 araC::acrB Pore) | Fold changes of MICs (EKO-35 araC::mdtEF Pore) | Minimum inhibitory concentration, EKO-35 araC::mdtEF Pore (EKO-35 araC::mdtEF Pore) | Fold changes of MICs (EKO-35 araC::acrEF Pore) | Minimum inhibitory concentration, EKO-35 araC::acrEF Pore (EKO-35 araC::acrEF Pore) | Fold changes of MICs (EKO-35 araC::mexCD Pore) | also measured
O=C(Nc1cccc(Oc2c(F)c(F)c(F)c(F)c2F)c1)c1ccccc1 [compound 1] | 1 fold | 320 µg/mL | 320 µg/mL | 1 fold | 320 µg/mL | 1 fold | 320 µg/mL | 1 fold | 320 µg/mL | 1 fold | 320 µg/mL | 1 fold | 320 µg/mL | 1 fold | 320 µg/mL | 1 fold | 320 µg/mL | 1 fold | 320 µg/mL | 1 fold | Minimum inhibitory concentration (EKO-35 araC::mexCD Pore): 320 µg/mL; Fold changes of MICs (EKO-35 araC::acrD Pore): 1 fold; Minimum inhibitory concentration, EKO-35 araC::acrD Pore (EKO-35 araC::acrD Pore): 320 µg/mL; Fold change of MICs (EKO-35 araC::mdtBC): 1 fold; Minimum Inhibitory Concentration, EKO-35 araC::mdtBC (EKO-35 araC::mdtBC): 320 µg/mL; Fold change of MICs (EKO-35 araC::mdtEF): 1 fold; Minimum Inhibitory Concentration, EKO-35 araC::mdtEF (EKO-35 araC::mdtEF): 320 µg/mL; Minimum inhibitory concentration (MIC), Pore ΔtolC (ΔtolC-Pore): 10 µg/mL; Minimum inhibitory concentration, ΔtolC-Pore (ΔtolC-Pore): 10 µg/mL; Minimum inhibitory concentration (MIC), Pore K-12 (wild-type (WT) K-12-Pore): 320 µg/mL; Minimum inhibitory concentration, K-12 (WT)-Pore (wild-type (WT) K-12-Pore): 320 µg/mL; Minimum inhibitory concentration (MIC), ΔtolC (E. coli ΔtolC): 5 µg/mL; Minimum Inhibitory Concentration, ΔtolC (E. coli ΔtolC): 5 µg/mL; Minimum inhibitory concentration (MIC), K-12 [2]: 320 µg/mL; Minimum Inhibitory Concentration, K-12 [2]: 320 µg/mL; Fold change of MICs (E. coli EKO-35): 1 fold; Minimum inhibitory concentration (MIC), EKO-35 (E. coli EKO-35): 320 µg/mL; Minimum Inhibitory Concentration, EKO-35 (E. coli EKO-35): 320 µg/mL
N#Cc1ccc(-c2c(NC(=O)C(Cl)Cl)oc(-c3cccs3)c2C#N)cc1 [compound 2] | 1 fold | 320 µg/mL | 320 µg/mL | 1 fold | 320 µg/mL | 1 fold | 320 µg/mL | 1 fold | 320 µg/mL | 1 fold | 320 µg/mL | 1 fold | 320 µg/mL | 1 fold | 320 µg/mL | 1 fold | 320 µg/mL | 1 fold | 320 µg/mL | 1 fold | Minimum inhibitory concentration (EKO-35 araC::mexCD Pore): 320 µg/mL; Fold changes of MICs (EKO-35 araC::acrD Pore): 1 fold; Minimum inhibitory concentration, EKO-35 araC::acrD Pore (EKO-35 araC::acrD Pore): 320 µg/mL; Fold change of MICs (EKO-35 araC::mdtBC): 1 fold; Minimum Inhibitory Concentration, EKO-35 araC::mdtBC (EKO-35 araC::mdtBC): 320 µg/mL; Fold change of MICs (EKO-35 araC::mdtEF): 1 fold; Minimum Inhibitory Concentration, EKO-35 araC::mdtEF (EKO-35 araC::mdtEF): 320 µg/mL; Minimum inhibitory concentration (MIC), Pore ΔtolC (ΔtolC-Pore): 1.25 µg/mL; Minimum inhibitory concentration, ΔtolC-Pore (ΔtolC-Pore): 1.25 µg/mL; Minimum inhibitory concentration (MIC), Pore K-12 (wild-type (WT) K-12-Pore): 320 µg/mL; Minimum inhibitory concentration, K-12 (WT)-Pore (wild-type (WT) K-12-Pore): 320 µg/mL; Minimum inhibitory concentration (MIC), ΔtolC (E. coli ΔtolC): 1.25 µg/mL; Minimum Inhibitory Concentration, ΔtolC (E. coli ΔtolC): 1.25 µg/mL; Minimum inhibitory concentration (MIC), K-12 [2]: 320 µg/mL; Minimum Inhibitory Concentration, K-12 [2]: 320 µg/mL; Fold change of MICs (E. coli EKO-35): 1 fold; Minimum inhibitory concentration (MIC), EKO-35 (E. coli EKO-35): 320 µg/mL; Minimum Inhibitory Concentration, EKO-35 (E. coli EKO-35): 320 µg/mL
N#CC(=NNc1cccc(C(F)(F)F)c1)C(=O)c1ccsc1 [compound 3] | 1 fold | 320 µg/mL | 320 µg/mL | 1 fold | 320 µg/mL | 1 fold | 320 µg/mL | 1 fold | 320 µg/mL | 1 fold | 320 µg/mL | 1 fold | 320 µg/mL | 1 fold | 320 µg/mL | 1 fold | 320 µg/mL | 1 fold | 320 µg/mL | 1 fold | Minimum inhibitory concentration (EKO-35 araC::mexCD Pore): 320 µg/mL; Fold changes of MICs (EKO-35 araC::acrD Pore): 1 fold; Minimum inhibitory concentration, EKO-35 araC::acrD Pore (EKO-35 araC::acrD Pore): 320 µg/mL; Fold change of MICs (EKO-35 araC::mdtBC): 1 fold; Minimum Inhibitory Concentration, EKO-35 araC::mdtBC (EKO-35 araC::mdtBC): 320 µg/mL; Fold change of MICs (EKO-35 araC::mdtEF): 1 fold; Minimum Inhibitory Concentration, EKO-35 araC::mdtEF (EKO-35 araC::mdtEF): 320 µg/mL; Minimum inhibitory concentration (MIC), Pore ΔtolC (ΔtolC-Pore): 1.25 µg/mL; Minimum inhibitory concentration, ΔtolC-Pore (ΔtolC-Pore): 1.25 µg/mL; Minimum inhibitory concentration (MIC), Pore K-12 (wild-type (WT) K-12-Pore): 320 µg/mL; Minimum inhibitory concentration, K-12 (WT)-Pore (wild-type (WT) K-12-Pore): 320 µg/mL; Minimum inhibitory concentration (MIC), ΔtolC (E. coli ΔtolC): 2.5 µg/mL; Minimum Inhibitory Concentration, ΔtolC (E. coli ΔtolC): 2.5 µg/mL; Minimum inhibitory concentration (MIC), K-12 [2]: 320 µg/mL; Minimum Inhibitory Concentration, K-12 [2]: 320 µg/mL; Fold change of MICs (E. coli EKO-35): 1 fold; Minimum inhibitory concentration (MIC), EKO-35 (E. coli EKO-35): 320 µg/mL; Minimum Inhibitory Concentration, EKO-35 (E. coli EKO-35): 320 µg/mL
